Experimental data reported in patent publication US20140302027A1, “METHODS OF TREATING PERIODONTAL INFLAMMATION AND PERIODONTAL BONE LOSS” (United States of America as Represented by the Secretary, …, priority 2011, published 2014).

How the values were obtained:
[1] = system: ligature-induced periodontal bone loss; test: Ligature-induced periodontitis model, periodontal bone loss; type: in vivo, mice; settings: for inhibition of induction of bone loss relative to no-treatment: 1 μg microinjected in gingiva daily (FIG. 26a)
Description: FIG. 26. Inhibition of bone loss by Del-1 and other treatments that block LFA-1 or IL-17. Ligature-induced periodontal bone loss was assessed in mice treated as follows: (a) 18-month-old (left) and 10-week-old mice (right) were microinjected in the gingiva with Del-1-Fc or Fc control (1 μg) or with anti-IL-17A mAb or isotype control (1 or 10 μg). (b) WT and Itgal^−/− mice received Del-1-Fc or Fc control as above. (c) LFA878 was locally administered at an equal molar concentration with Del-1-Fc (corresponding to 8.4 ng and 1 μg, respectively) or at the indicated higher doses. (d) Anti-LFA-1 or IgG2a control were microinjected at either 1 μg, as was Del-1-Fc, or at 10 μg. (e) Del-1-Fc, anti-LFA-1, anti-ICAM-1, ICAM-1-Fc and their controls were i.v. administered at 50 μg. Data are means±SD (n=5-6 mice per group) from one of two (a,c,e) or three (b,d) independent and representative experiments. Data represent % inhibition of bone loss, which was calculated using the formula: ([Bone loss in the absence of inhibitor−Bone loss in the presence of inhibitor]/Bone loss in the absence of inhibitor)×100. *P<0.05; **P<0.01. NS, not significant.
The ligature-induced periodontitis model was used to determine the efficacy of potential therapeutic interventions (see below). Specifically, bone loss was induced by tying a 5-0 silk ligature around the maxillary left second molar, placing the ligature in the gingival sulcus; this treatment induces bone loss in conventional (but not germ-free) mice due to massive bacterial accumulation in the ligated teeth (Graves (2008)). The contralateral molar tooth in each mouse was left unligated (baseline control). Bone loss was examined 5 days after placement of the ligatures, which remained in place in all mice during the experimental period. Using the VIA-170K system, bone measurements were performed on the ligated second molar (3 sites corresponding to mesial cusp, palatal groove, and distal cusp) and the affected adjacent regions (sites corresponding to distal cusp and distal groove of the first molar, and palatal cusp of the third molar). To calculate bone loss, the 6-site total CEJ-ABC distance for the ligated side of each mouse was subtracted from the 6-site total CEJ-ABC distance of the contralateral unligated side of the same mouse.
To determine its protective efficacy in ligature-induced periodontitis, Del-1 was used in the form of a fusion protein with the Fc region of human IgG1 (Del-1-Fc) (GenScript). Del-1-Fc (1 μg) was microinjected into the palatal gingiva of the ligated second maxillary molar, one day before placement of the ligature and every day thereafter until the day before sacrifice on day 5. In other experiments, Del-1-Fc was administered systemically by i.v. injection (50 μg), following the same timing schedule as above. The same protocols were used to determine the effect of local (or systemic) administration of mAbs to LFA-1 (clone M17/4, rat IgG2a; BioLegend), ICAM-1 (clone YN1, IgG2b; Biolegend), IL-17A (clone M210, rat IgG2a; Amgen), or IL-17F (clone 316016, rat IgG2a; R&D Systems). Recombinant mouse ICAM-1 fused to the Fc region of human IgG1 (ICAM-1-Fc) as well as an LFA-1 antagonist (LFA878; kindly provided by Novartis) (Weitz-Schmidt (2004)) were also used in bone loss inhibition experiments. Purified azide-free rat IgG2a or IgG2b (BioLegend) and recombinant human IgG1 Fc (R&D Systems) were used as controls for the mAbs and Del-1-Fc, respectively.

[2] = system: P. gingivalis (Pg)-induced bone loss; test: P. gingivalis-induced periodontal bone loss mouse model; type: in vivo, mice; settings: local gingival injections (FIG. 2C)
[3] = system: Del-1 expression in human endothelial cells; test: Del-1 mRNA expression in HUVEC stimulated with human IL-17A; type: cell-based
Description: FIG. 21. IL-17 downregulates Del-1 expression. (a) Gingival Del-1 mRNA expression in wild-type (WT) and IL17ra^−/− mice determined by qPCR. (b) Sagittal sections of interdental gingiva of WT and Il17ra^−/− mice were stained for Del-1; shown are representative fluorescent confocal images (upper row) and their overlays with corresponding DIC images (lower row). Bar, 50 μm; T, tooth; G, gingiva; S, sulcus. (c) The fluorescence intensities of these and additional representative images from independent mice (5 per group) were quantified using ImageJ analysis. (d) Anti-IL-17A mAb and IgG2a control were microinjected into the gingiva and Del-1 mRNA expression was determined by qPCR. (e) Gingival IL-17A mRNA expression was determined in young (8-10 weeks) and old (18 months) mice using qPCR. (f) Linear-regression analysis of Del-1 versus IL-17A expression in old mice. (g) Determination of Del-1 mRNA expression and MPO amounts in the gingiva of indicated BM chimeric mice (donor BM→lethally irradiated recipient). (h) HUVEC were stimulated with or without human IL-17A and Del-1 mRNA expression was quantified by qPCR (pooled data from four independent experiments). […]
Total RNA was extracted from excised gingival tissue or cultured cells using the PerfectPure RNA cell kit (5 Prime, Fisher) and quantified by spectrometry at 260 and 280 nm. […]

human neutrophils = test: Transmigration assay of human neutrophils through HUVEC monolayer; type: cell-based; settings: 5 μg/ml, towards IL-8 (20 ng/ml)
Description: FIG. 14. LFA-1 dependence of Del-1 deficiency-associated inflammation and bone loss. (a) Twenty-week-old C57BL/6 wild-type (WT) mice or mice deficient in the indicated molecules were assessed for bone loss relative to 5-week-old WT mice (zero baseline); the dotted line indicates the bone heights of 20-week-old WT mice for ease of comparison. (b) Sagittal sections of interdental gingiva from the same mice were stained for Ly6G; shown are representative overlays of DIC and fluorescent confocal images. (c) The fluorescence intensities of these and additional representative images from independent mice (5 per group) were quantified using ImageJ analysis. (d) Dissected gingiva from the indicated mice were processed for ELISA determination of MPO protein (left) or qPCR determination of PGRP1 transcript abundance (right). (e) Transmigration of human neutrophils through an endothelial cell monolayer (HUVEC) towards IL-8 (20 ng/ml) in the bottom well was determined with or without soluble human Del-1 (5 μg/ml), BSA (5 μg/ml), anti-LFA-1 mAb (10 μg/ml) or IgG1 control (10 μg/ml). […]
Transmigration assays were performed as previously described (Ley (2007)), using 6.5-mm Transwells with an 8-μm pore size (Corning). […] After 60 min incubation at 37° C., the number of transmigrated cells in the lower compartment was measured (Ley (2007)). […]

Del-1-Fc: Del-1 as a fusion protein with the Fc region of human IgG1 (GenScript); SEQ ID NO: 5
inhibition of induction of bone loss relative to no-treatment ([1]; 10-week-old mice): ≈ 80% | inhibition of bone loss ([1]; 18-month old mice, microinjected in palatal gingiva daily from day -1 to day 4 (FIG. 7)): significant inhibition of bone loss | inhibition of induction of bone loss relative to no-treatment ([1]; 18-month-old mice): inhibited | effect against bone loss ([1]; Itgal−/− mice (LFA-1 deficient), local (FIG. 26b)): minor, but not statistically significant, effect | potency in inhibiting periodontal bone loss versus other LFA-1-ICAM-1 inhibitors ([1]; given locally or systemically): more potent

CC[C@H](C)C(=O)O[C@H]1C[C@@H](C)C=C2C=C[C@H](C)[C@H](CC[C@@H]3C[C@H](CC(=O)NC)N(Cc4ccc(O)c(OC)c4)C(=O)O3)[C@H]21 [LFA878, reference compound]
protection against bone loss compared with Del-1-Fc ([1]; local, equal molar amounts (8.4 ng vs 1 μg Del-1-Fc) (FIG. 26c)): less protective than Del-1-Fc | protection against bone loss compared with Del-1-Fc ([1]; locally administered at 1 μg (FIG. 26c)): almost (but not quite) comparable to Del-1-Fc

O=C(NCc1cccc(O)c1)c1cc(Cl)c(C(=O)N[C@@H](CNC(=O)c2cc(O)cc(O)c2)C(=O)O)c(Cl)c1 [XVA143]
P. gingivalis (Pg)-induced bone loss [2]: inhibited

human IL-17A: human IL-17A cytokine used to stimulate HUVEC
Del-1 expression in human endothelial cells (HUVEC) [3]: inhibited

B1: human Del-1: soluble human Del-1 from R&D Systems; human Del-1 amino acid sequence SEQ ID NO: 1 (protein, listed as Homo sapiens)
chain: MKRSVAVWLLVGLSLSVPQFGKGDICDPNPCENGGICLPGLADGSFSCECPDGFTDPNCSSVVEVASDEEEPTSAGPCTPNPCHNGGTCEISEAYRGDTFIGYVCKCPRGFNGIHCQHNINECEVEPCKNGGICTDLVANYSCECPGEFMGRNCQYKCSGPLGIEGGIISNQQITASSTHRALFGLQKWYPYYARLNKKGLINAWTAAENDRWPWIQINLQRKMRVTGVITQGAKRIGSPEYIKSYKIAYSNDGKTWAMYKVKGTNEDMVFRGNIDNNTPYANSFTPPIKAQYVRLYPQVCRRHCTLRMELLGCELSGCSEPLGMKSGHIQDYQITASSIFRTLNMDMFTWEPRKARLDKQGKVNAWTSGHNDQSQWLQVDLLVPTKVTGIITQGAKDFGHVQFVGSYKLAYSNDGEHWTVYQDEKQRKDKVFQGNFDNDTHRKNVIDPPIYARHIRILPWSWYGRITLRSELLGCTEEE
LFA-1-dependent transendothelial migration of human neutrophils (human neutrophils): inhibited
